We go through one compound from BindingDB's records for doi:10.1021/acs.jnatprod.5b00062 (Albert-Ludwigs-University of Freiburg, 2015).

For assay [1], the target named is Sodium/potassium-transporting ATPase subunit alpha-1 (Rattus norvegicus, UniProt P06685). Nature of the assay: Inhibition of Wistar rat kidney Na+,K+-ATPase alpha1 after 2 hrs.
Assay [2] deals with Sarcoplasmic/endoplasmic reticulum calcium ATPase 1 (Rattus norvegicus, UniProt Q64578). In words: Inhibition of Wistar rat EDL muscle SERCA1a after 1 hr.
Sarcoplasmic/endoplasmic reticulum calcium ATPase 1, sequence (Q64578 whole entry): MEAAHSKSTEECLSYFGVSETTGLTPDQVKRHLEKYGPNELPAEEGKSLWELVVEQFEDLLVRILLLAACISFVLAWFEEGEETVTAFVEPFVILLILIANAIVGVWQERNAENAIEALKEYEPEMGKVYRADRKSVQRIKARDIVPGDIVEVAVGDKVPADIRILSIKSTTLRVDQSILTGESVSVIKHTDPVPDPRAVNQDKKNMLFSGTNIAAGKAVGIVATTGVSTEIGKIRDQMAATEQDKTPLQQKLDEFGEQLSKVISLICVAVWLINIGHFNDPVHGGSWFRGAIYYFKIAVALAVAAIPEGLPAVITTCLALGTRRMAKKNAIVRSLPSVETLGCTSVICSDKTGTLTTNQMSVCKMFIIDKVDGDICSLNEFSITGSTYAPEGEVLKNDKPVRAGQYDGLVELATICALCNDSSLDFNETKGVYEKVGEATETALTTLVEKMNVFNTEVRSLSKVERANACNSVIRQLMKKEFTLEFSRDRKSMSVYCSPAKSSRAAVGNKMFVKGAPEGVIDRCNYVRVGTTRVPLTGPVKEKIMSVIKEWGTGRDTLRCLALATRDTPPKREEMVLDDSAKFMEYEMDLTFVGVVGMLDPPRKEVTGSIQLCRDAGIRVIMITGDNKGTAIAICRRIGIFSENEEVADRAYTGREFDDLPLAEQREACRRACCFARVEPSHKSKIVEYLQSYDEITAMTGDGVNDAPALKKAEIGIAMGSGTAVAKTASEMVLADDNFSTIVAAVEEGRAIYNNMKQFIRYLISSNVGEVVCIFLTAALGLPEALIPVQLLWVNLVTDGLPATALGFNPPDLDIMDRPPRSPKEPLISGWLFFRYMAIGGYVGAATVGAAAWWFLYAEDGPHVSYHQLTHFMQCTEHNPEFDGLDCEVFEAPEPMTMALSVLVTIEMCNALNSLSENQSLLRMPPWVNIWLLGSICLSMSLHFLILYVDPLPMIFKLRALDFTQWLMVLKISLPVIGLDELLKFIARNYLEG

As for `CC[C@H](C)[C@H]1O[C@]2(CC[C@@H]1C)C[C@@H]1C[C@@H](C/C=C(\C)[C@@H](O[C@H]3C[C@H](OC)[C@@H](O[C@H]4C[C@H](OC)[C@@H](O)[C@H](C)O4)[C@H](C)O3)[C@@H](C)/C=C/C=C3\CO[C@@H]4[C@H](O)C(C)=C[C@@H](C(=O)O1)[C@]34O)O2` [ABAMECTIN], the IC50 in assay [1] turned out to be 8.23 µM; in assay [2], 16.9 µM.
